Assay results reported in patent US20240033256A1, “INHIBITORS OF POSITIVE STRAND RNA VIRUSES” (priority 2020, published 2024).
Like-named read-outs stand apart in the source and are kept apart here.

How the values were obtained:
[1] = system: Zika virus; experiment: Zika virus IFA assay (E protein) in Vero E6 cells; assay type: cell-based; conditions: read-out: EC50 (Zika virus)
Experimental: Compounds 1-9 were evaluated for their inhibitory activities against Zika virus using an IFA assay, which targeted Zika virus Envelope (“E”) protein.
(§1) Vero E6 cells (BCRC #60476, Bioresource Collection and Research Center, Hsinchu, Taiwan) were treated with one of Compounds 1-9 at a predetermined concentration for 1 hour at 37° C. The cells were adsorbed with Zika virus (ATCC VR-1843, American Type Culture Collection, Manassas, VA, USA) at MOI=0.02 for 49 hours at 37° C. The cells were fixed with 10% formalin, permeabilized with methanol. The cells were stained with anti-flavivirus E antibody (ATCC HB-112, American Type Culture Collection, Manassas, VA, USA) and anti-mouse IgG-FITC (MP Biomedicals, Irvine, CA, USA). The nuclei were counter stained with DAPI (in blue) (Thermo Fisher Scientific, MA, USA). The E protein expression was measured using a high-content image analysis system (Molecular Devices). The cell viability was determined by MTS. Both EC50 and CC50 were calculated by Prism software.

[2] = Vero E6 cell viability by MTS (Zika study); assay type: cell-based; conditions: African green monkey, Vero E6 cells
Experimental: as §1
(§2) Their cytotoxic effects were also determined by the MTS assay described above using Vero E6 cells.

[3] = system: Dengue virus type 1; experiment: Dengue virus type 1 IFA assay (E protein) in Vero E6 cells; assay type: cell-based; conditions: MOI 0.002, 5 days at 33° C, read-out: DV1 EC50
Experimental: (§3) Compounds 1-9 were evaluated for their inhibitory activities against Dengue virus, another single positive-stranded RNA virus belonging to genus of flavivirus, using an IFA assay that targeted the Dengue virus Envelope (“E”) protein.
(§4) Vero E6 cells (BCRC #60476, Bioresource Collection and Research Center, Hsinchu, Taiwan) were treated with one of Compounds 1-9 at a predetermined concentration for 1 hour at 37° C. The cells were infected with Dengue virus type 1 (“DV1”, ATCC VR-1856, American Type Culture Collection, Manassas, VA, USA) at MOI=0.002 or Dengue virus type 2 (“DV2”, ATCC VR-1584, American Type Culture Collection, Manassas, VA, USA) at MOI=0.02, both for 5 days at 33° C. They were then fixed with 10% formalin and permeabilized with methanol. Subsequently, the cells were stained with anti-flavivirus E antibody (ATCC HB-112, American Type Culture Collection, Manassas, VA, USA) and anti-mouse IgG-FITC (MP Biomedicals, Irvine, CA, USA). The nuclei of the cells were counter stained with DAPI (Thermo Fisher Scientific, MA, USA). The E protein expression was measured by using a high-content image analysis system (Molecular Devices). The cell viability was determined by MTS. EC50 and CC50 were calculated by Prism software.

[4] = system: Dengue virus type 2; experiment: Dengue virus type 2 IFA assay (E protein) in Vero E6 cells; assay type: cell-based; conditions: MOI 0.02, 5 days at 33° C, read-out: DV2 EC50
Experimental: as §3, §4

[5] = Vero E6 cell viability by MTS (Dengue study); assay type: cell-based; conditions: African green monkey, Vero E6 cells
Experimental: as §4

[6] = system: Vero E6 cells; experiment: Vero E6 cell viability by MTS (Zika study); assay type: cell-based
Experimental: as §1, §2

[7] = system: Vero E6 cells; experiment: Vero E6 cell viability by MTS (Dengue study); assay type: cell-based
Experimental: as §4

[8] = system: SARS-CoV-2; experiment: SARS-CoV-2 cytopathic effect (CPE) by visualization in infected Vero E6 cells; assay type: cell-based; conditions: Severe acute respiratory syndrome coronavirus 2, Vero C1008, read-out: SARS-CoV-2 inhibition EC50, CPE
Experimental: Compounds 1-3 were examined for their inhibitory activity against SARS-CoV-2 in Vero E6 cells. Cytopathic effects (“CPE”) of SARS-CoV-2 infected Vero E6 cells, with treatment of compounds in 2-fold dilution at a series of 12 concentrations, were visualized. EC50 and CC50 values were calculated.

[9] = system: SARS-CoV-2; experiment: SARS-CoV-2 immunofluorescence assay (IFA), N protein expression in Vero E6 cells; assay type: cell-based
Experimental: Vero E6 cells derived from BCRC #60476 (Bioresource Collection and Research Center, Hsinchu, Taiwan) were treated with each compound at an indicated concentration for 1 hour at 37° C. The cells were adsorbed with SARS-CoV-2 viruses (TCDC #4, National Taiwan University, Taipei, Taiwan, ROC) at multiplicity of infection (“MOI”) of 0.01 for 1 hour at 37° C. After virus adsorption, the cells were washed with phosphate-buffered saline (“PBS”). A fresh medium containing the compound was added at an indicated concentration. The resultant mixture was incubated for 2 days. The cells were fixed with 4% paraformaldehyde and permeabilized with a 0.5% Triton™ X-100 detergent solution (Thermo Fisher Scientific, Waltham, MA). Subsequently, they were stained with an anti-SARS-CoV-2 N protein antibody and anti-human IgG-488 (in green). The nuclei of the cells were counter stained with 4′,6-diamidino-2-phenylindole (“DAPI”, Thermo Fisher Scientific, MA, USA). The N protein expression was measured using a high-content image analysis system (Molecular Devices, San Jose, CA). The cell viability was determined by Cell Counting Kit-8 (Sigma-Aldrich, St. Louis, MO) EC50 and CC50 values were calculated by Prism software. […] Both EC50 and CC50 are measured in molar units, e.g., mol/L (“M”), μmol/L (“μM”), and nmol/L (“nM”).

[10] = system: HCoV-OC43; experiment: HCoV-OC43 IFA assay (N protein) in HCT-8 cells; assay type: cell-based
[11] = HCT-8 cell viability (MTS); conditions: human, HCT-8 cells
[12] = system: HCoV-229E; experiment: HCoV-229E cytopathic effect / end point assay by TCID50 with crystal violet in MRC5 cells; conditions: Human coronavirus 229E, MRC5, read-out: EC50 (HCoV-229E)
Experimental: An end point assay by TCID50 was performed. Crystal violet was used to stain live cells to determine the EC50 of each compound. Further, CC50 and selective index were calculated.

[13] = system: SARS-CoV-2; experiment: SARS-CoV-2 plaque assay in Vero E6 cells; assay type: cell-based; conditions: Severe acute respiratory syndrome coronavirus 2, Vero C1008
Experimental: The assay was performed in triplicate in 24-well tissue culture plates. Vero E6 cells were seeded in Dulbecco's modified Eagle's medium (“DMEM”) with 10% Fetal Bovine Serum (“FBS”, Biological Industries, Kibbutz, Israel) and antibiotics one day before infection. SARS-CoV-2 viruses were added to the cell monolayer and allowed to sit for 1 hour at 37° C. After viruses were removed, the cell monolayer was washed once with PBS before covering with media containing agarose or methylcellulose for 5-7 days. The cells were fixed with 3.7% formaldehyde overnight followed by removal of overlay media. They were then stained with crystal violet to count the plaque-forming units (“PFU”). The percentage of inhibition was calculated as [1−(VD/VC)]×100%, where VD and VC refer to the virus titer in the presence and absence of a test compound, respectively.

[14] = Vero E6 cells, MOI 0.02, 49 hours
[15] = Severe acute respiratory syndrome coronavirus 2, Vero C1008, 48 h, Vero E6 cells, MOI 0.01, 2 days, run 1, read-out: SARS-CoV-2 inhibition EC50, IFA-1
[16] = Severe acute respiratory syndrome coronavirus 2, Vero C1008, 48 h, Vero E6 cells, MOI 0.01, 2 days, run 2, read-out: SARS-CoV-2 inhibition EC50, IFA-2
[17] = Severe acute respiratory syndrome coronavirus 2, Vero C1008, IFA, range over Compounds 1, 2 and 3, read-out: EC50 against SARS-CoV-2 (range given)
[18] = Dengue virus, Vero C1008, 120 h
[19] = Betacoronavirus 1, OC43, HCT-8 cells, MOI 0.05, means ± S.D. from three independent experiments, read-out: EC50 (HCoV-OC43)
[20] = Zika virus, Vero C1008, 49 h, Vero E6 cells, MOI 0.02, 49 hours

Compound | CC50 [2] | CC50 [5] | EC50 [8] | EC50 [9, 15] | EC50 [9, 16] | EC50 [9, 17] | EC50 [3, 18] | EC50 [4, 18] | CC50 [11] | EC50 [12] | EC50 [10, 19] | EC50 [1, 20] | also measured
CCN1Cc2c(c3cc(OC)c(OC)cc3c3cc(OC)c(OC)cc23)C(O)C1 (single isomer, unassigned) [Compound 7] | > 5000 nM | > 5000 nM |  |  |  |  |  |  |  |  |  |  | EC50 [1, 14]: 44.4 nM; EC50 [3]: 73.1 nM; EC50 [4]: 124 nM
CCN1Cc2c(c3cc(OC)c(OC)cc3c3cc(OC)c(OC)cc23)C(O)C1 (single isomer, unassigned) [Compound 9] |  |  |  |  |  |  |  |  |  |  |  |  | EC50 [1, 14]: 144 nM; CC50 [6]: > 5000 nM; EC50 [3]: 296 nM; EC50 [4]: 616 nM; CC50 [7]: > 5000 nM
COc1cc2c3c(c4cc(OC)c(OC)cc4c2cc1OC)CN1CCC[C@H]1C3 [Compound 1, (13as)-2,3,6,7-tetramethoxy-9,11,12,13,13a,14-hexahydrophenanthro[9,10-f] indolizine] | > 5000 nM | > 5000 nM | 78 nM | 64 nM | 76.8 nM | 9 to 77 nM | 18.4 nM | 32.5 nM | > 10000 nM | 71.4 ± 13.2 nM |  |  | EC50 ([10]; Betacoronavirus 1, OC43, HCT-8, read-out: EC50 (HCoV-OC43)): 68 ± 2.7 nM; EC50 ([1]; Zika virus, Vero C1008, 49 h): 61.4 nM
CCN1Cc2c(c3ccc(OC)cc3c3cc(OC)c(OC)cc23)C(O)C1 (stereo not drawn) [Compound 2] | > 5000 nM | > 5000 nM | 2.5 nM | 9.1 nM | 13.9 nM | 9 to 77 nM | 4.3 nM | 4.7 nM | > 10000 nM | 6.5 ± 1 nM | 16.4 ± 4.7 nM | 15.3 nM | EC50 ([13]; Vero E6 cells, run 1, read-out: SARS-CoV-2 inhibition EC50, Plaque assay-1): 10.8 nM; EC50 ([13]; Vero E6 cells, run 2, read-out: SARS-CoV-2 inhibition EC50, Plaque assay-2): 13.8 nM; EC50 ([13]; infected Vero E6 cells, four measurements, read-out: EC50 against SARS-CoV-2, plaque assay, all four measurements): 11 to 14 nM
CCN1Cc2c(c3ccc(OC)cc3c3cc(OC)c(OC)cc23)C(O)C1C (stereo not drawn) [Compound 3] | > 5000 nM | > 5000 nM | 20 nM | 31.6 nM | 31.9 nM | 9 to 77 nM | 19.6 nM | 29 nM | > 10000 nM | 25.4 ± 3.1 nM | 55.9 ± 6.2 nM | 15.9 nM | 
COc1cc2c3c(c4cc(OC)c(OC)cc4c2cc1OC)CN1CCCCC1C3 (stereo not drawn) [Compound 4] | > 5000 nM | > 5000 nM |  |  |  |  | 7.6 nM | 8.3 nM | > 10000 nM |  | 51.7 ± 6.1 nM | 13.3 nM | 
CCN1CCc2c(c3cc(OC)c(OC)cc3c3cc(OC)ccc23)C1 [Compound 5] | > 5000 nM | > 5000 nM |  |  |  |  | 131 nM | 286 nM | > 10000 nM |  |  | 156 nM | 
COc1cc2c3c(c4cc(OC)c(OC)cc4c2cc1OC)C[N+]1([O-])CCCC1C3 (stereo not drawn) [Compound 6] | > 5000 nM | > 5000 nM |  |  |  |  | 1640 nM | 2640 nM | > 10000 nM |  | 1890 ± 228 nM | 1040 nM | Selectivity index (HCoV-OC43) ([10]; CC50/EC50, HCT-8 cells): >5.3
CCCN1Cc2c(c3cc(OC)c(OC)cc3c3cc(OC)c(OC)cc23)C(O)C1 (stereo not drawn) [Compound 8] | > 5000 nM | > 5000 nM |  |  |  |  | 247 nM | 617 nM |  |  |  | 304 nM | 
